# Assay: Stability of angiotensin peptides in binding buffer (reverse phase HPLC)
# Assay type: physicochemical
# Settings: 4 h at 37° C.
# Description: Binding studies were carried out in a buffer (below) containing an extensive cocktail of inhibitors that was designed to minimize metabolism of both the receptor and the test ligand, i.e., the buffer contained 5 mM EDTA, 0.2% BSA, […] Bestatin, 50 μM Plummer's inhibitor, and 100 μM PMSF.
smiles,measurement,value
"CC[C@H](C)[C@H](NC(=O)[C@H](Cc1ccc(O)cc1)NC(=O)[C@@H](N)C(C)C)C(=O)N[C@@H](Cc1cnc[nH]1)C(=O)N1CCC[C@H]1C(=O)N[C@@H](Cc1ccccc1)C(=O)O [AIV, Val1 Tyr2 Ile3 His4 Pro5 Phe6]",hydrolysis in binding buffer,less than 10%

# Reference: US5854388A, “Angiotensin IV peptides and receptor” (Washington State University Research Foundation, priority 1994, dated 1998)
